The values that follow come from patent publication US20230100838A1 (Revolution Medicines, Inc., priority 2019, published 2023).

Holding throughout (type): binding
The target of test [1] is T1, GDP-loaded K-Ras (1-169) G12D, C51S, C80L, C118S (Homo sapiens, UniProt P01116, C118S/C51S/C80L/G12D).
T1 construct: GDP-loaded K-Ras (1-169) G12D, C51S, C80L, C118S
The experiment in a line: K-Ras G12D(GDP) cross-linking assay (conjugate formation, TOF mass spectrometry). The conditions noted are these: percent covalently modified K-Ras by MS, room temperature, typical compound conc. 2, 10, 25 μM, endpoints 1 and 24 h. The arrangement: key: 0: No observed x-linking; +: 0 < x ≤ 20; ++: 20 < x ≤ 40; +++: 40 < x ≤ 100. The protocol:
(§1) Protocol: K-Ras G12D(GDP) Cross-Linking Assay
(§2) Note: while the following protocol outlines the procedure for K-Ras G12D(GDP), a person of skill in the art may substitute other Ras proteins, and may also substitute a non-hydrolyzable GTP analog for GDP to study GTP bound Ras protein.
(§3) GDP-loaded K-Ras (1-169) G12D, C51S, C80L, C118S and GDP-loaded K-Ras (1-169) C51S, C80L, C118S were adjusted to 50 μM in K-Ras assay buffer (12.5 mM HEPES, 75 mM NaCl and 1 mM MgCl2 at pH 7.4). A 5 μL aliquot of each protein solution was added to each well of a 96-well microplate containing 40 μL of assay buffer. Initial compound stocks were prepared in DMSO at 100 times their final assay concentration. Compounds were then diluted 10-fold into K-Ras assay buffer to 10 times their final concentration. A 5 μL aliquot of each diluted compound solution was added to each protein solution in the 96-well microplate to initiate the reaction, which then proceeded at room temperature. Typical final compound concentrations were 2, 10, and 25 μM. At each time point, the reactions were analyzed immediately or quenched with 5 μL of a 5% formic acid solution and kept at 4° C. until analysis. Typical assay endpoints were 1 and 24 h.
(§4) Data collection took place on an Agilent 6230 TOF Mass Spectrometer. Complete reactions were injected onto a C4 reverse-phase column to separate protein from buffer components prior to entering the mass spectrometer. The proteins were eluted from the column by increasing acetonitrile fraction in the mobile phase and fed directly into the mass analyzer. Initial analysis of raw data took place in Agilent MassHunter BioConfirm software and consisted of deconvolution of multiple protein charge states with the maximum entropy algorithm, with a mass step of 1 Da. The heights of all deconvoluted protein masses were exported for further data analysis. The percent modification of each protein was then determined by calculating the peak height of the covalently modified K-Ras species as a percentage of the sum total of K-Ras protein peak height.

Test [2] deals with T2, GDP-loaded K-Ras (1-169) C51S, C80L, C118S (Homo sapiens, UniProt P01116, C118S/C51S/C80L).
T2 construct: GDP-loaded K-Ras (1-169) C51S, C80L, C118S
Briefly: K-Ras WT (GDP) cross-linking assay (conjugate formation, TOF mass spectrometry). Details: key: 0: No observed x-linking; +: 0 < x ≤ 20; ++: 20 < x ≤ 40; +++: 40 < x ≤ 100. The conditions noted are these: percent covalently modified K-Ras by MS, room temperature, typical compound conc. 2, 10, 25 μM, endpoints 1 and 24 h. The protocol:
as §1, §2, §3, §4

The target of test [3] is K-Ras G12S (Homo sapiens, UniProt P01116, G12S). The experiment in a line: K-Ras G12S cross-linking assay (comparable procedure, conjugate formation, TOF mass spectrometry). Details: key: 0: No observed x-linking. Here is the method: as §1, §2, §3, §4
Setting [4] is: Table 4, percent covalently modified K-Ras by MS.

As to `COc1ccc(N=C=NC2CCN(c3ncnc4c(F)c(-c5ccccc5F)c(Cl)cc34)CC2)cc1` [Example 5, N-(1-(6-chloro-8-fluoro-7-(2-fluorophenyl)quinazolin-4-yl)piperidin-4-yl)-N-(4-methoxyphenyl)methanediimine], the “G12D x-linking (%)” value in test [1] (Table 4) was found to be 0. The “WT x-linking (%)” value in test [2] (Table 4) turned out to be 0. Moreover, the “G12S x-linking (%)” value in test [3] (setting [4]) was 0.
With `O=C(C1CCN(c2ncnc3c(F)c(-c4ccccc4F)c(Cl)cc23)CC1)C(F)(F)F` [Example 18, 1-(1-(6-chloro-8-fluoro-7-(2-fluorophenyl)quinazolin-4-yl)piperidin-4-yl)-2,2,2-trifluoroethan-1-one], the “G12D x-linking (%)” value in test [1] (Table 4) was 0. In addition, in test [2] (Table 4), the “WT x-linking (%)” value is recorded as 0. Further, the “G12S x-linking (%)” value in test [3] (setting [4]) was determined as 0.
As to `COCCN=C=N[C@H]1CC[C@H](N(C)c2nc(OC[C@@H]3CCCN3C)nc3c2CCN(c2cccc4cccc(C)c24)C3)CC1` [Example 78, N-((1r,4S)-4-((((2-methoxyethyl)imino)methylene)amino)cyclohexyl)-N-methyl-7-(8-methylnaphthalen-1-yl)-2-(((S)-1-methylpyrrolidin-2-yl)methoxy)-5,6,7,8-tetrahydropyrido[3,4-d]pyrimidin-4-amine], the “G12D x-linking (%)” value in test [1] (Table 5) is on record as “++ (20 < x ≤ 40)”. Moreover, the “WT x-linking (%)” value in test [2] (Table 5) was “+ (0 < x ≤ 20)”. The “G12S x-linking (%)” value in test [3] (Table 5, percent covalently modified K-Ras by MS) is reported as “+ (0 < x ≤ 10)”.
With `Cc1cccc2cccc(N3CCc4c(nc(OC[C@@H]5CCCN5C)nc4N4CCN(C(=O)NCCCl)[C@@H](CC#N)C4)C3)c12` [Example 34, (S)—N-(2-chloroethyl)-2-(cyanomethyl)-4-(7-(8-methylnaphthalen-1-yl)-2-(((S)-1-methylpyrrolidin-2-yl)methoxy)-5,6,7,8-tetrahydropyrido[3,4-d]pyrimidin-4-yl)piperazine-1-carboxamide], in test [1] (Table 4), the “G12D x-linking (%)” value is “+ (0 < x ≤ 20)”. In addition, the “WT x-linking (%)” value in test [2] (Table 4) is listed as “+ (0 < x ≤ 20)”. The “G12S x-linking (%)” value in test [3] (setting [4]) is “+ (0 < x ≤ 10)”.
Take `COc1ccc(CN=C=NCCCN(C)c2nc(=O)n(-c3c(C)ccnc3C(C)C)c3nc(-c4ccccc4F)c(F)cc23)cc1` [Example 58]: in test [1] (Table 4), the “G12D x-linking (%)” value is reported as “+ (0 < x ≤ 20)”. Further, the “WT x-linking (%)” value in test [2] (Table 4) is “+ (0 < x ≤ 20)”. In addition, the “G12S x-linking (%)” value in test [3] (setting [4]) is reported as “++ (10 < x ≤ 100)”.
Take `O=C(NCCCl)NCCNc1ncnc2c(F)c(-c3ccccc3F)c(Cl)cc12` [Example 12, 1-(2-((6-chloro-8-fluoro-7-(2-fluorophenyl)quinazolin-4-yl)amino)ethyl)-3-(2-chloroethyl)urea]: the “G12D x-linking (%)” value in test [1] (Table 4) is on record as 0. Also, the “WT x-linking (%)” value in test [2] (Table 4) is 0. Also, the “G12S x-linking (%)” value in test [3] (setting [4]) turned out to be 0.
Take `Fc1ccccc1-c1c(Cl)cc2c(N3CCC(N=C=NCc4ccccc4)CC3)ncnc2c1F` [Example 1, N-benzyl-N-(1-(6-chloro-8-fluoro-7-(2-fluorophenyl)quinazolin-4-yl)piperidin-4-yl)methanediimine]: in test [1] (Table 4), the “G12D x-linking (%)” value was “+ (0 < x ≤ 20)”. The “WT x-linking (%)” value in test [2] (Table 4) is reported as “+ (0 < x ≤ 20)”. Also, the “G12S x-linking (%)” value in test [3] (setting [4]) is listed as “+ (0 < x ≤ 10)”.
As for `Cc1ccc2[nH]ncc2c1N1CCc2c(nc(OC[C@@H]3CCCN3C)nc2N2CCN(C(=O)[C@H]3CN3)[C@@H](CC#N)C2)C1` [Example 110, 2-((S)-1-((R)-aziridine-2-carbonyl)-4-(7-(5-methyl-1H-indazol-4-yl)-2-(((S)-1-methylpyrrolidin-2-yl)methoxy)-5,6,7,8-tetrahydropyrido[3,4-d]pyrimidin-4-yl)piperazin-2-yl)acetonitrile], the “G12D x-linking (%)” value in test [1] (Table 5) is listed as “+ (0 < x ≤ 20)”. For the same compound, in test [2] (Table 5), the “WT x-linking (%)” value is “+ (0 < x ≤ 20)”.
For `Cc1cccc2cccc(N3CCc4c(nc(OC[C@@H]5CCCN5C)nc4N4CC[C@@H](NC(=O)[C@@H]5CN5)[C@@H](CC#N)C4)C3)c12` [Example 128], the “G12D x-linking (%)” value in test [1] (Table 5) was “+ (0 < x ≤ 20)”. The “WT x-linking (%)” value in test [2] (Table 5) is on record as “+ (0 < x ≤ 20)”.
Turning to `Cc1ccnc(C(C)C)c1-n1c(=O)nc(N2[C@H](C)CN(C(=O)[C@@H]3CN3)C[C@H]2C)c2cc(F)c(-c3c(O)cccc3F)nc21` [Example 142], the “G12D x-linking (%)” value in test [1] (Table 5) is reported as “+ (0 < x ≤ 20)”. Also, in test [2] (Table 5), the “WT x-linking (%)” value is on record as “+ (0 < x ≤ 20)”.
For the compound `CN1CCC[C@H]1COc1nc2c(c(N3CCN(C(=O)[C@@H]4CN4)[C@@H](CC#N)C3)n1)CCN(c1cccc3cccc(Cl)c13)C2` [Example 113, 2-((S)-1-((S)-aziridine-2-carbonyl)-4-(7-(8-chloronaphthalen-1-yl)-2-(((S)-1-methylpyrrolidin-2-yl)methoxy)-5,6,7,8-tetrahydropyrido[3,4-d]pyrimidin-4-yl)piperazin-2-yl)acetonitrile], the “G12D x-linking (%)” value in test [1] (Table 5) was “+ (0 < x ≤ 20)”. Moreover, the “WT x-linking (%)” value in test [2] (Table 5) is “+ (0 < x ≤ 20)”.
For the compound `COCCN1C[C@@H]1C(=O)N1CCN(c2nc(OC[C@@H]3CCCN3C)nc3c2CCN(c2cccc4cccc(C)c24)C3)C[C@@H]1CC#N` (stereo partly drawn) [Example 105, 2-((S)-1-((R)-1-(2-methoxyethyl)aziridine-2-carbonyl)-4-(7-(8-methylnaphthalen-1-yl)-2-(((S)-1-methylpyrrolidin-2-yl)methoxy)-5,6,7,8-tetrahydropyrido[3,4-d]pyrimidin-4-yl)piperazin-2-yl)acetonitrile], the “G12D x-linking (%)” value in test [1] (Table 5) is given as “++ (20 < x ≤ 40)”. In addition, the “WT x-linking (%)” value in test [2] (Table 5) is listed as “+ (0 < x ≤ 20)”.
For the compound `Cc1cccc2cccc(N3CCc4c(nc(OC[C@@H]5CCCN5C)nc4N4CC[C@H](NC(=O)C5CN5)C4)C3)c12` (stereo partly drawn) [Example 130], the “G12D x-linking (%)” value in test [1] (Table 5) is listed as “+ (0 < x ≤ 20)”. Moreover, the “WT x-linking (%)” value in test [2] (Table 5) stood at 0.
In the same order, the values of `Cc1ccnc(C(C)C)c1-n1c(=O)nc(N2[C@H](C)CN(C(=O)[C@H]3CN3)C[C@H]2C)c2cc(F)c(-c3c(O)cccc3F)nc21` [Example 137] are 0 and 0.
As to `Cc1cccc2cccc(N3CCc4c(nc(OC[C@@H]5CCCN5C)nc4N4CC[C@H](NC(=O)[C@@H]5CN5)[C@@H](CC#N)C4)C3)c12` [Example 127], in test [1] (Table 5), the “G12D x-linking (%)” value is reported as “+ (0 < x ≤ 20)”. Besides, the “WT x-linking (%)” value in test [2] (Table 5) was “+ (0 < x ≤ 20)”.
On to `Cc1cccc2cccc(N3CCc4c(nc(OC[C@@H]5CCCN5C)nc4N4CC[C@@H](NC(=O)[C@H]5CN5)[C@@H](CC#N)C4)C3)c12` [Example 125], for which the “G12D x-linking (%)” value in test [1] (Table 5) was “+ (0 < x ≤ 20)”. The “WT x-linking (%)” value in test [2] (Table 5) is “+ (0 < x ≤ 20)”.
Consider `Cc1ccnc(C(C)C)c1-n1c(=O)nc(N2[C@@H](C)CN(C(=O)[C@H]3CN3)C[C@@H]2C)c2cc(F)c(-c3c(O)cccc3F)nc21` [Example 136], for which the “G12D x-linking (%)” value in test [1] (Table 5) is listed as “+ (0 < x ≤ 20)”. The “WT x-linking (%)” value in test [2] (Table 5) is given as “+ (0 < x ≤ 20)”.
As to `C#CCCN1CCC[C@H]1COc1nc2c(c(N3CCN(C(=O)[C@H]4CN4)[C@@H](CC#N)C3)n1)CCN(c1cccc3cccc(C)c13)C2` [Example 116, 2-((S)-1-((R)-aziridine-2-carbonyl)-4-(2-(((S)-1-(but-3-yn-1-yl)pyrrolidin-2-yl)methoxy)-7-(8-methylnaphthalen-1-yl)-6,6,7,8-tetrahydropyrldo[3,4-d]pyrimidin-4-yl)piperazin-2-yl)acetonitrile], in test [1] (Table 5), the “G12D x-linking (%)” value is on record as “+ (0 < x ≤ 20)”. Moreover, in test [2] (Table 5), the “WT x-linking (%)” value is “+ (0 < x ≤ 20)”.
In the case of `CN1CCC[C@H]1COc1nc2c(c(N3CCN(C(=O)[C@H]4CN4)[C@@H](CC#N)C3)n1)CCN(c1cccc3cccc(Cl)c13)C2` [Example 112, 2-((S)-1-((R)-aziridine-2-carbonyl)-4-(7-(8-chloronaphthalen-1-yl)-2-(((S)-1-methylpyrrolidin-2-yl)methoxy)-5,6,7,8-tetrahydropyrido[3,4-d]pyrimidin-4-yl)piperazin-2-yl)acetonitrile], the “G12D x-linking (%)” value in test [1] (Table 5) is “++ (20 < x ≤ 40)”. Moreover, the “WT x-linking (%)” value in test [2] (Table 5) came to 0.
